{"source": "patent US9487561B2", "about": "“Biologically active complex and its preparation” (HAMLET PHARMA AB, priority 2010, dated 2016)", "key": {"[1]": {"test_system": "lung carcinoma cells (A549)", "assay": "intracellular Ca^2+, Fluo-4, real time confocal microscopy", "assay_type": "cell-based, human", "experimental": "To examine if HAMLET modulates ion channel activity in tumor cells, we first quantified changes in intracellular Ca^2+ and K^+. Lung carcinoma cells were first preloaded with the Fluo-4 Ca^2+ fluorophore Fluo-, exposed to HAMLET (35 μM) and examined by real time confocal microscopy for changes in fluorescence intensity (FIG. 1A). The Ca^2+ ionophore A23187, which acts as a Ca^2+ shuttle across cell membranes, was used as a positive control (Abbott et al., 1979, Antimicrobial Agents and Chemotherapy 16, 808-812).\nTo distinguish Ca^2+ mobilization from intracellular stores from the influx of extracellular Ca^2+, EGTA was then added to the cell medium. […] K^+ fluxes across tumor cell membranes were subsequently quantified under the same experimental conditions, using the fluorophore FLUXOR™, which fluoresces after thallium has entered cells through K^+ channels.\n(§1) To further characterize ion channel activation by HAMLET, carcinoma cells were pretreated with defined channel blockers. Amiloride is a sodium channel inhibitor with effects on mechanosensitive channels, barium chloride (BaCl2) is a general K^+ channel inhibitor, gadolinium chloride (GdCl3) inhibits mechanosensitive channels, Ruthenium red is a general Ca^2+ inhibitor and tetrandrine inhibits large conductance, Ca^2+ activated K^+ channels. The carcinoma cells were preincubated with Fluo-4 as described above, pretreated with each of the channel inhibitors for 30 minutes, exposed to HAMLET (35 μM) and examined by real time confocal imaging. Furthermore, cells treated with EGTA were compared to cells with intact extracellular Ca^2+ levels, to distinguish the early peak from the subsequent influx of Ca^2+ (FIG. 1B, Table in FIG. 8)."}, "[2]": {"test_system": "Human renal tubular epithelial cells (HRTEC)", "assay": "Ca^2+ and K^+ levels in healthy, differentiated cells in primary culture", "assay_type": "cell-based", "conditions": "HAMLET 35 μM", "experimental": "Human renal tubular epithelial cells (HRTEC) were preincubated with Fluo-4 as described, exposed to HAMLET (35 μM) and examined by real time confocal microscopy.\nas §1"}}}
{"smiles": "CNc1ccc2oc(C[C@H]3O[C@@]4(CC[C@H]3C)O[C@H]([C@H](C)C(=O)c3ccc[nH]3)[C@H](C)C[C@H]4C)nc2c1C(=O)O", "note": "[ionophore, reference compound]", "values": [{"measurement": "cells involved in Ca^2+ response", "setting": "[1]", "value": "all cells"}, {"measurement": "intracellular Ca^2+ response", "setting": "[1]; HAMLET 35 μM", "value": "more drastic and sustained increase in intracellular Ca^2+ levels than HAMLET"}, {"measurement": "Ca^2+ response in HRTECs", "setting": "[2]", "value": "rapid and sustained increase in Ca^2+"}]}
